Data set [1] concerns water-soluble protein/glycoprotein test matrix. As to the kind of experiment: Water soluble assay (Alpha): optical response (OD400) of the macromolecule active agent, irritation score. The note with it: TP/FN/TN based on comparison with the in vivo test results.
Protocol: (§1) The macromolecule based test matrix behaves as an active agent in the assay and is capable of undergoing a measurable change when exposed to an ocular irritant. The measurable change may be a change in appearance, which can be measured by spectrophotometry. One or more standards of known toxicity are added to at least a second aliquot of the water-soluble matrix to form control solutions, to generate a calibration curve. The measurable change induced by the test substance can be compared to the measurable change induced by the standards to make an ocular toxicity prediction. For instance, test substances that induce an equal or greater reaction than a known irritant may be classified as ocular irritants. In some embodiments, the pH of the control solution may be adjusted to match the pH of the test solution, thereby controlling for pH effects and increasing accuracy. In some embodiments, a test substance which is at least partially water insoluble is added to an aliquot of a reagent comprised of one or more hydrophobic organic polymers capable of undergoing a measurable change in response to water insoluble ocular irritants. The measurable change may be a change in appearance, which can be measured by spectrophotometry. One or more standards of known toxicity are added to at least a second aliquot of the reagent to generate a calibration curve. The measurable change induced by the test substance can be compared to the measurable change induced by the standards to make an ocular toxicity prediction in the manner described above. Water-soluble and water-insoluble assays can be performed in parallel, or multiplexed, to rapidly and efficiently predict the ocular toxicity of a wide range of compounds.
(§2) In some embodiments related to the water-soluble sub-assay, the test matrix is a water-soluble active agent comprising one or more macromolecules in aqueous solution. […] In some embodiments, the water-soluble active agent comprises at least one of isoleucine, glutamine, leucine, lysine, tyrosine, valine, proline, methione, fumerase, serine, urocanate, triacyl glycerol, globulin, gammaglobulin, mucopolysaccharide, albumin, carbohydrates, lipids, saponins, conalbumin, ovalbumin, ovomucoid, mucin, egg white fractions, plant extract, cell extract, milk fractions, red blood cell extract, muscle extract, gelatin fractions, heme, aspartate, lignocerate, stearate, linolenate, benzoate, carnitine, palmate, coenzyme A, and urea. The molecules and macromolecules can be derived as crude cell or tissue extracts, or obtained individually or in part and reconstituted.
(§3) A third pretest is performed to measure the buffering power of the unknown test substance. […] Next, 125 μL or mg of test substance is added to the test tube. The pH of the mixture is recorded. The final pH is compared to the starting pH and the absolute value of the change in pH is applied as an exponent to base 10 to generate a buffering score. These pretest results are used to select specific procedures to further analyze the test substance. Compounds with a buffering score between 5 and 2 are within the MA α domain. Compounds outside of the MA α domain with buffering scores less than 100 are within the HMA α domain. Substances with a buffering score of at least 100 are within the H-test domain.
(§4) The MA α procedure is used to test unknowns that have a small buffering capacity. The MA α procedure predicts a substance's capacity for indirect denaturation of molecules across a membrane via osmotic effects, such as osmotic effects across the corneal epithelium and stroma which can damage the cornea. The MA α assay further analyzes Potential to damage tissue via excessive oxidation and reactivity, which can occur at the epithelium, stroma, conjunctiva and iris.
The subject of the next data set is eye. The note with it: cited from earlier work.
Data set [2] is described as follows: Water insoluble assay (Delta): optical response (OD700) of the hydrophobic polymer Δ reagent, irritation score. The note with it: TP/FN/TN based on comparison with the in vivo test results.
Protocol: Triplicate Δ Test and Δ Control cells are labeled as follows: Test Cell 40 μL; Control Cell 40 μL; Test Cell Standard A; Test Cell Standard B. The cells are placed in a rack. 40 μL aliquots of test sample are added to the three Δ positive cells. 40 μL of Standard A+ and 40 μL of Standard B+ are added to the respective triplicate cells. 40 μL of test substance is aliquoted to the True Negative cell. All test and standard cells (A+, B+, and control cells) are filled with 2 mL of Δ reagent. […] 2 mL of Δ reagent is added to a naïve Δ test cell to blank a spectrophotometer. The OD700 value is measured for all test and standard cells. Where the substance is colored or opaque, 2 mL of Δ reagent are added to a naïve control Δ cell, and the OD700 value is measured for all control cells.
Test Cell values are recorded. Control cell values are recorded. Where samples are colored or opaque Net OD700 values are obtained by subtracting the average of the control cell OD700 value from the average of the test cell OD700 value. The average of positive controls A+ and B+ are calculated.
For each unknown, an irritancy classification is ascertained by using the closest positive cell value. The highest measured value is used. The standard with the closest OD value is identified as the Closest Standard Value. The Measured Value is divided by the mean of the three Closest Standard Values. A multiplier is applied to the quotient corresponding to the designation of the Closest Standard Value. If the Closest Standard Value is A+, the multiplier is 8. […] The resulting value is the irritation score for the sample. The highest score is used to predict the irritancy of the sample.
The test system of data set [3] is water-soluble protein/glycoprotein test matrix.
Protocol: as §1, §2, §3, §4
[4] abbreviates: category of irritant from published in vivo irritancy tests (GHS).

The source of these data is patent US10041922B2, “Biochemistry based ocular toxicity assay” (priority 2015, dated 2018).

Each structure is given as a SMILES string. Where two headings read alike, the source gives them in different places.

In the case of `BrCCCCCCBr` [1,6-Dibromohexane], the “Water soluble assay (Alpha), parenthetical call versus in vivo” value in data set [1] is given as “(TN)”. Further, the in vivo entry with eye (setting [4]) is reported as “Not Classified”. The “water insoluble assay (Delta), parenthetical call versus in vivo” value in data set [2] is given as “(TN)”.

On to `ClCCCCBr` [1-Bromo-4-chlorobutane], for which the “Water soluble assay (Alpha), parenthetical call versus in vivo” value in data set [1] is given as “(TN)”. Also, the in vivo entry in the data set on eye (setting [4]) was “Not Classified”. The “water insoluble assay (Delta), parenthetical call versus in vivo” value in data set [2] is given as “TN)”.

Consider `CCCCCCO` [1-Hexanol], for which the “Water soluble assay (Alpha), parenthetical call versus in vivo” value in data set [1] is on record as “(TP)”. The in vivo entry with eye (setting [4]) is given as “Category 2A”. Further, the “water insoluble assay (Delta), parenthetical call versus in vivo” value in data set [2] is recorded as “(FN)”.

For the molecule `CCC(C)(C)C(=O)O` [2,2-Dimethyl Butanoic Acid], the “Water soluble assay (Alpha), parenthetical call versus in vivo” value in data set [1] was “(TP)”. Moreover, the “water insoluble assay (Delta), parenthetical call versus in vivo” value in data set [2] is reported as “(FN)”.

As to `CCCCC(CC)COC(=O)c1ccc(N(C)C)cc1` (stereo not shown) [2-Ethylhexyl 4-(dimethylamino)benzoate], the “Water soluble assay (Alpha), parenthetical call versus in vivo” value in data set [1] is on record as “(TN)”. The in vivo entry in the data set with eye (setting [4]) is listed as “Not Classified”. Moreover, the “water insoluble assay (Delta), parenthetical call versus in vivo” value in data set [2] is “(TN)”.

Regarding `CC(C)O` [2-Propanol], the “Water soluble assay (Alpha), parenthetical call versus in vivo” value in data set [1] is “(TP)”. Further, the in vivo result with eye (setting [4]) is reported as “Category 2A”. Also, in data set [2], the “water insoluble assay (Delta), parenthetical call versus in vivo” value is “(FN)”.

Take `O=C=Nc1ccc(Cl)c(Cl)c1` [3,4-Dichlorophenyl isocyanate]: the “Water soluble assay (Alpha), parenthetical call versus in vivo” value in data set [1] is “(TP)”. Moreover, the “water insoluble assay (Delta), parenthetical call versus in vivo” value in data set [2] is listed as “(FN)”.

Turning to `CC(C)(C)CC(C)(C)c1ccc(O)cc1` [4-(1,1,3,3-Tetramethylbutyl)phenol], in data set [1], the “Water soluble assay (Alpha), parenthetical call versus in vivo” value was “(TP)”. For the same molecule, the “water insoluble assay (Delta), parenthetical call versus in vivo” value in data set [2] was “(FN)”.

For `OCc1ccccc1` [Benzyl Alcohol], the “Water soluble assay (Alpha), parenthetical call versus in vivo” value in data set [1] is listed as “(TP)”. In data set [2], the “water insoluble assay (Delta), parenthetical call versus in vivo” value is “(TP)”.

As for `CCN(CC)CCO` [Diethylethanolamine], the in vivo result in the data set on eye (rabbit, in vivo) is listed as “Category 1”. In data set [3], the “Water soluble assay (Alpha)” value was 53.54 and the “Water soluble assay (Alpha), parenthetical call versus in vivo” value was “(TP)”.

On to `CCCCCCCCCCCC` [Dodecane], for which the “Water soluble assay (Alpha), parenthetical call versus in vivo” value in data set [1] is recorded as “(TN)”. In addition, in the data set with eye (setting [4]), the in vivo entry is recorded as “Not Classified”. The “water insoluble assay (Delta), parenthetical call versus in vivo” value in data set [2] is “(TN)”.

In the case of `NCCO` [Ethanolamine], in data set [1], the “Water soluble assay (Alpha), parenthetical call versus in vivo” value was “(TP)”. The in vivo entry with eye (setting [4]) is listed as “Category 2B”. In addition, in data set [2], the “water insoluble assay (Delta), parenthetical call versus in vivo” value is listed as “(FN)”.

Take `CCOC(=O)C(C)C(C)=O` (stereo not shown) [Ethyl 2-methyl]: the in vivo result in the data set on eye (rabbit, in vivo) is recorded as “Category 2B”. In addition, in data set [3], the “Water soluble assay (Alpha)” value was 10.9 and the “Water soluble assay (Alpha), parenthetical call versus in vivo” value is reported as “(FN)”.

As to `CCOC(=O)C(C)(C)O` [Ethyl a-hydroxyisobutyrate], the in vivo entry with eye (rabbit, in vivo) is listed as “Category 1”. In data set [3], the “Water soluble assay (Alpha)” value is reported as greater than 60 and the “Water soluble assay (Alpha), parenthetical call versus in vivo” value is “(TP)”.

For the molecule `C=CC(=O)OCCO` [Hydroxyethyl acrylate], the “Water soluble assay (Alpha), parenthetical call versus in vivo” value in data set [1] is reported as “(TP)”.

For `CO[Si](CCCNCCC[Si](OC)(OC)OC)(OC)OC` [Organofunctional Silane], the in vivo result in the data set with eye (rabbit, in vivo) was “Category 1”. In addition, in data set [3], the “Water soluble assay (Alpha)” value came to 25.53 and the “Water soluble assay (Alpha), parenthetical call versus in vivo” value is on record as “(TP)”.

Turning to `c1ccncc1` [Pyridine], the in vivo result with eye (rabbit, in vivo) is given as “Category 1”.

With `O=C(Cl)C(Cl)(Cl)Cl` [Trichloroacetyl chloride], the “Water soluble assay (Alpha), parenthetical call versus in vivo” value in data set [1] is “(TP)”. In addition, the “water insoluble assay (Delta), parenthetical call versus in vivo” value in data set [2] is reported as “(TP)”.

Regarding `CCCCCCCCN` [n-Octylamine], the “Water soluble assay (Alpha), parenthetical call versus in vivo” value in data set [1] is on record as “(TP)”. Further, the “water insoluble assay (Delta), parenthetical call versus in vivo” value in data set [2] is listed as “(TP)”.

Regarding `CN(C)CCCCCCN(C)C` [tetramethyl-1,6 hexanediame], the “Water soluble assay (Alpha), parenthetical call versus in vivo” value in data set [1] was “(TP)”. Besides, the “water insoluble assay (Delta), parenthetical call versus in vivo” value in data set [2] is given as “(TP)”.
